One compound from ChEMBL document CHEMBL4507319 (2021) can be followed below.

The target in experiment [1] is Mitogen-activated protein kinase kinase kinase 9 (Homo sapiens) (UniProt P80192). In words: MLK1(h) Eurofins kinase panel. The conditions noted are these: Compound concentration 1.0 uM.
The target of experiment [2] is T1, Serine/threonine-protein kinase tousled-like 1 (Homo sapiens) (UniProt Q9UKI8).
T1 sequence (whole entry): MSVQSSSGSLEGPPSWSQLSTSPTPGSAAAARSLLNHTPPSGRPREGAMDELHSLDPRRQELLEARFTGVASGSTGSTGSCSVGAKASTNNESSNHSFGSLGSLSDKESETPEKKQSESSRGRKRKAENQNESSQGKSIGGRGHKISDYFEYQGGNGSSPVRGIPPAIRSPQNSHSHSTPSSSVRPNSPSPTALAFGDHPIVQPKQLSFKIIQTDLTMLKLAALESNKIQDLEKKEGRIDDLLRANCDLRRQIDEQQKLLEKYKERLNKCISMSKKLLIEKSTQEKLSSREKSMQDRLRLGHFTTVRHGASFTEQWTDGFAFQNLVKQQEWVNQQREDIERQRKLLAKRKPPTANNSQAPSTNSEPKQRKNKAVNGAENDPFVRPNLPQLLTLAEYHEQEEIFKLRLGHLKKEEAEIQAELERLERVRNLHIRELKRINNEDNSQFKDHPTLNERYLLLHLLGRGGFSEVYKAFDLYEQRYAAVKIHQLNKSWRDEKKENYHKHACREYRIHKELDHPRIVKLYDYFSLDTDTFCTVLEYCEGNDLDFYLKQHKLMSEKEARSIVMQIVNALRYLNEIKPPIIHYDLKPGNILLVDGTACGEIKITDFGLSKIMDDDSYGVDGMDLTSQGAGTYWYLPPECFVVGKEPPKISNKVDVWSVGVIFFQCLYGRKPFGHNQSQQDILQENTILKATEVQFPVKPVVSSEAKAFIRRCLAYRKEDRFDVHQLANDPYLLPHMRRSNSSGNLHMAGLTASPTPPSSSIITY
In words: TLK1(h) Eurofins kinase panel. Conditions: Compound concentration 1.0 uM.

The target of experiment [3] is Receptor-type tyrosine-protein kinase FLT3 (Homo sapiens) (UniProt P36888). The conditions noted are these: Compound concentration 1.0 uM.
Experiment [4] deals with T2, Serine/threonine-protein kinase ULK2 (Homo sapiens) (UniProt Q8IYT8).
T2 sequence (whole entry): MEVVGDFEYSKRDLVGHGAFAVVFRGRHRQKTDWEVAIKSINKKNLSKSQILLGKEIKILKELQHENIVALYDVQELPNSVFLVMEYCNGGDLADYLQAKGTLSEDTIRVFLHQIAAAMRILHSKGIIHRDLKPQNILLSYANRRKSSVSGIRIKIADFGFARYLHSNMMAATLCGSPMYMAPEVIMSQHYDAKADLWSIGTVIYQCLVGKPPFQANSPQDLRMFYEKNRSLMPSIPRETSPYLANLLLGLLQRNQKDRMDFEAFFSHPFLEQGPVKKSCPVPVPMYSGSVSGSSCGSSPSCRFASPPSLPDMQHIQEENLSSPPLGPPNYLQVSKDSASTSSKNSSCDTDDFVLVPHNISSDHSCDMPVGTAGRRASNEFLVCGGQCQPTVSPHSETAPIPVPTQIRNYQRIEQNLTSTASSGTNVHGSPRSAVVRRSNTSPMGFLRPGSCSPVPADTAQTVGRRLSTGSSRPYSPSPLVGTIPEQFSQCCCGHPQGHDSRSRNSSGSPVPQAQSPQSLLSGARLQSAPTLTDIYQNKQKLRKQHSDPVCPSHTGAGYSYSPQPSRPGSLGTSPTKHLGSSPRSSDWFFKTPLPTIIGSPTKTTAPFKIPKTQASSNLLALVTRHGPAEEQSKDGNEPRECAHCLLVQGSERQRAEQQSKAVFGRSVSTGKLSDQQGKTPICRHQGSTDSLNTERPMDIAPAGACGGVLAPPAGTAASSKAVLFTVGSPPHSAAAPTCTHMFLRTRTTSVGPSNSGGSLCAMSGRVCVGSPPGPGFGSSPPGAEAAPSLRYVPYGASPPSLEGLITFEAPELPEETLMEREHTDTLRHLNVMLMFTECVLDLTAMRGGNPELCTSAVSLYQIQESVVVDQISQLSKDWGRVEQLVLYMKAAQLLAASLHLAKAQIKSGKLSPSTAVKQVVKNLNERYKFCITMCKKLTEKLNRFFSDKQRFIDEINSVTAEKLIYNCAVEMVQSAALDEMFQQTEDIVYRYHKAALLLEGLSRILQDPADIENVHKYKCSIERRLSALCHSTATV
In words: ULK2(h) Eurofins kinase panel. Conditions: Compound concentration 1.0 uM.

For experiment [5], the target named is Platelet-derived growth factor receptor alpha (Homo sapiens) (UniProt P16234). Description: PDGFRalpha(h) Eurofins kinase panel. Conditions: Compound concentration 1.0 uM.
Experiment [6] concerns the target NT-3 growth factor receptor (Homo sapiens) (UniProt Q16288). In words: TrkC(h) Eurofins kinase panel. The conditions noted are these: Compound concentration 1.0 uM.
The target in experiment [7] is Insulin receptor (Homo sapiens) (UniProt P06213). Description: IR(h) Eurofins kinase panel. The conditions noted are these: Compound concentration 1.0 uM.
The subject of another experiment is NCI-H292. In words: NCI- H292 cell line Proliferation assay. Conditions: time 3 day. Type of experiment: functional, Homo sapiens.
In experiment [8] the target is Tyrosine-protein kinase FRK (Homo sapiens) (UniProt P42685). Description: PTK5(h) Eurofins kinase panel. Conditions: Compound concentration 1.0 uM.
Sequence of Tyrosine-protein kinase FRK (Homo sapiens) (P42685 whole entry): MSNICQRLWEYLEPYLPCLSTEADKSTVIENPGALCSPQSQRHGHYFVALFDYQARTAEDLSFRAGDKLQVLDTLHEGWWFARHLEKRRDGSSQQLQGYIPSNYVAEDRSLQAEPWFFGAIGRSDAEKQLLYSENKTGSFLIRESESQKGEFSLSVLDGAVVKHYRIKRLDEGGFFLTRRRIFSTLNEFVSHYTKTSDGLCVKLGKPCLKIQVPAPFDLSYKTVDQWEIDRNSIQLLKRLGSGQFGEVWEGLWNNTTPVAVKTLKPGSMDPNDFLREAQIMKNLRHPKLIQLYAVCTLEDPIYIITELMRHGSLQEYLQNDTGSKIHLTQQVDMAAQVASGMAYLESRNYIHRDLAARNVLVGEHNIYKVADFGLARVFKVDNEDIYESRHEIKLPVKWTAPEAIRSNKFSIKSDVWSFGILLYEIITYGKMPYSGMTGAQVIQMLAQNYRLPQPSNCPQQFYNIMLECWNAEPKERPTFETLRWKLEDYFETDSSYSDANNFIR

Sequence of Receptor-type tyrosine-protein kinase FLT3 (Homo sapiens) (P36888 whole entry): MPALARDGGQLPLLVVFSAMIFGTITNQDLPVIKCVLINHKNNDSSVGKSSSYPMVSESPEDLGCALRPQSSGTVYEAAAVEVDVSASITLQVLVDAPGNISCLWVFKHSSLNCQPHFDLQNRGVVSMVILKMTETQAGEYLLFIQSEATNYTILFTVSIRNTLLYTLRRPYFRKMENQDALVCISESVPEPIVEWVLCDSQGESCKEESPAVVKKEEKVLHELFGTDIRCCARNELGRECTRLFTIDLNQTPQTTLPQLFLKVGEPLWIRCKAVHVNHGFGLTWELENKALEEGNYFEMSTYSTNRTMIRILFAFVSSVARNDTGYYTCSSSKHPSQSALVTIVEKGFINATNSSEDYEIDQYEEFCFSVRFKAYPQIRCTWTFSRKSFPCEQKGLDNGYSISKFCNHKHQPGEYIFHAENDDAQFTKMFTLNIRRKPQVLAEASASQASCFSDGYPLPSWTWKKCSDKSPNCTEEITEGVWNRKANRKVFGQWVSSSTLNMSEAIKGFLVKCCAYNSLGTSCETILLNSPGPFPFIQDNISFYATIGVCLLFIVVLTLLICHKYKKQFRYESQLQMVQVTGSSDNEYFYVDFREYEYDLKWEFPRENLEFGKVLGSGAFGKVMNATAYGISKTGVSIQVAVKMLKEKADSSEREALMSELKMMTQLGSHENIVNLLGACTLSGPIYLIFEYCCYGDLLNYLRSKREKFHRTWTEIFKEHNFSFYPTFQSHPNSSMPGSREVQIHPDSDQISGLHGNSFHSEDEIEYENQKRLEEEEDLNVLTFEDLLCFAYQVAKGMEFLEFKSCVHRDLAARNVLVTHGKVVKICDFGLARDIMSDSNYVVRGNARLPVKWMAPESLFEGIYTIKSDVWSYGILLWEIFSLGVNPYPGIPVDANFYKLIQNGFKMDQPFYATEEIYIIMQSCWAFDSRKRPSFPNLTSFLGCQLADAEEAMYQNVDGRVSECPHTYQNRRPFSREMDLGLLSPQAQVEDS
Sequence of Platelet-derived growth factor receptor alpha (Homo sapiens) (P16234 whole entry): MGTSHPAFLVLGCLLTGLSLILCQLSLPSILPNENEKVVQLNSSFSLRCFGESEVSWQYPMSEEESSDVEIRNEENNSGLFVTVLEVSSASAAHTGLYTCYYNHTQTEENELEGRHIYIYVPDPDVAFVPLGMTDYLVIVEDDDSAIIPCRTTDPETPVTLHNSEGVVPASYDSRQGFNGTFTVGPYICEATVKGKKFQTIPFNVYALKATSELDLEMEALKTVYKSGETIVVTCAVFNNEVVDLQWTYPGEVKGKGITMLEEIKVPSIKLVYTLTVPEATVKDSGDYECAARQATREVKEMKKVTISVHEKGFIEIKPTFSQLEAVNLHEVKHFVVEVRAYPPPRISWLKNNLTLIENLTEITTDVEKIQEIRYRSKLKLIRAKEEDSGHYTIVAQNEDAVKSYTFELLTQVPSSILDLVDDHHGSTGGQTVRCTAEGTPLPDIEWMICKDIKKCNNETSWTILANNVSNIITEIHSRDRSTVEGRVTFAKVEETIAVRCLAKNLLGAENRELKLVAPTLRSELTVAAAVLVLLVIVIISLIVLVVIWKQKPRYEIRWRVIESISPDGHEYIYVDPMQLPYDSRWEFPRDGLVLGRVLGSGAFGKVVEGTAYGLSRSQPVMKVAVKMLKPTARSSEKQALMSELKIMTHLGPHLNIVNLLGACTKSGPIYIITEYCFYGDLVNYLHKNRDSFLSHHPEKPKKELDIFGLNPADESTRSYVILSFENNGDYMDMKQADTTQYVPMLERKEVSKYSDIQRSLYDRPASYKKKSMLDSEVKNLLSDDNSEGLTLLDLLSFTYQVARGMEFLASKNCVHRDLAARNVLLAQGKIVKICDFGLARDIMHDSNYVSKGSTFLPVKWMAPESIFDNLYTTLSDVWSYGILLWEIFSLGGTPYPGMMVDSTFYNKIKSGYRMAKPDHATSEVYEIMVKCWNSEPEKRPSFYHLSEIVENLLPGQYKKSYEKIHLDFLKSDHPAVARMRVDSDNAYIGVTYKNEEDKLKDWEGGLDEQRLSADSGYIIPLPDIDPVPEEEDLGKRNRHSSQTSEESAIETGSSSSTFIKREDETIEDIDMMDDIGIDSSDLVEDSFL
Sequence of NT-3 growth factor receptor (Homo sapiens) (Q16288 32-839 limits assumed): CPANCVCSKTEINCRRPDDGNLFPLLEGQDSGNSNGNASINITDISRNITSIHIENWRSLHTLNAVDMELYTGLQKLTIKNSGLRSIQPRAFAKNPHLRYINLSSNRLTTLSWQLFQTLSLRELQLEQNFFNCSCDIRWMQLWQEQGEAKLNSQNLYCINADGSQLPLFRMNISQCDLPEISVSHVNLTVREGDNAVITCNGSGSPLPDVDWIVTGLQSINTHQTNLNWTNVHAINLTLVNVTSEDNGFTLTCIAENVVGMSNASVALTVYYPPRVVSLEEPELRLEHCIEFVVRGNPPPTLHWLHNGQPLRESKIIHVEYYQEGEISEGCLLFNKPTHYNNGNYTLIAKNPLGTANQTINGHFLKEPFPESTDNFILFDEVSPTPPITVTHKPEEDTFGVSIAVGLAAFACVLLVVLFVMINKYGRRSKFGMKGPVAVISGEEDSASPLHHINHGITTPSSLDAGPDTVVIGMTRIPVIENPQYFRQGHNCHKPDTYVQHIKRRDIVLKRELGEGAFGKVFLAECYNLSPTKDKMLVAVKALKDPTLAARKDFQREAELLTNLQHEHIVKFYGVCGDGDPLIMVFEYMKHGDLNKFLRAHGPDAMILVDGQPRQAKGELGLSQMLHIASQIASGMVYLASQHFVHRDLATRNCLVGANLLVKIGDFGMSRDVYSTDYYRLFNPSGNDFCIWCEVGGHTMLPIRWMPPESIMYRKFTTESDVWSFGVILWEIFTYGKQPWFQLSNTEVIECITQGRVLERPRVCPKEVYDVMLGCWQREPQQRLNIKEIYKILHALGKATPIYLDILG
Sequence of Insulin receptor (Homo sapiens) (P06213 28-758 limits assumed): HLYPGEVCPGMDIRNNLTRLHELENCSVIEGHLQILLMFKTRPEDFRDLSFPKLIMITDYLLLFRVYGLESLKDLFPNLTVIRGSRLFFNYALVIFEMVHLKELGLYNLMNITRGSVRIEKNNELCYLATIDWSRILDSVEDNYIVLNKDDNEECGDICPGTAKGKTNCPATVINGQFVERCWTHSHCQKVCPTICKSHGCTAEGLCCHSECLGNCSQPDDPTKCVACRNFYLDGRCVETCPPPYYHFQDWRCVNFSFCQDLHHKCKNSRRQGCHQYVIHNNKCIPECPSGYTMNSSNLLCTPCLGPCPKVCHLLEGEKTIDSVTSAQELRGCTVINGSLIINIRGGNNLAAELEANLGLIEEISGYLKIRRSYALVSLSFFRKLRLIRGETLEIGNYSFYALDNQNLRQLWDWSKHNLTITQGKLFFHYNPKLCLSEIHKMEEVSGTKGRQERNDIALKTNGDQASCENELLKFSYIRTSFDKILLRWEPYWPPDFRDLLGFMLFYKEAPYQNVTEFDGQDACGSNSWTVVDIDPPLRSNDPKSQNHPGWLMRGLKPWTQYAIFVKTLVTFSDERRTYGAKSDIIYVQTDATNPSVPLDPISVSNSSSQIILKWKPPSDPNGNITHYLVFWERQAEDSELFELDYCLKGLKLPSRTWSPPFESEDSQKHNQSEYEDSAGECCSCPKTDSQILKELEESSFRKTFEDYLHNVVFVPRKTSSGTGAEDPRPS
Sequence of Insulin receptor (Homo sapiens) (P06213 763-1382 limits assumed): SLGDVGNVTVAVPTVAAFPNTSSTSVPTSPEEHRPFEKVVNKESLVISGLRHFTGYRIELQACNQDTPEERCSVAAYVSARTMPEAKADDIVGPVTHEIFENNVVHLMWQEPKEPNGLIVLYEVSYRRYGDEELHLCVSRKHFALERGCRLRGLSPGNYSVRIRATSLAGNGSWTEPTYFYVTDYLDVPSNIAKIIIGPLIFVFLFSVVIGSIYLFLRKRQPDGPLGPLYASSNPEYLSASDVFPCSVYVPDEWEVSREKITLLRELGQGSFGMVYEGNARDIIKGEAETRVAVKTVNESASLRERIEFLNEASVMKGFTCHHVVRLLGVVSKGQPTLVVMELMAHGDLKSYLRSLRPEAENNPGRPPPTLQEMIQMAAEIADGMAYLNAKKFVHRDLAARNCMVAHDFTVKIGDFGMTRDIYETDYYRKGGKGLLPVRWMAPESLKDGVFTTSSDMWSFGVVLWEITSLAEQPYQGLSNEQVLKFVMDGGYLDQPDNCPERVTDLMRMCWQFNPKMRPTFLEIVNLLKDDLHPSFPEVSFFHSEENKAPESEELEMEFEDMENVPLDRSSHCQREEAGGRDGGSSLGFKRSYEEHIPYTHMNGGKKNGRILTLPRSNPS

For `CCc1ccccc1C(=O)Nc1n[nH]c2c(C)c(F)c(C3C(C#N)=C(C)N(C)C(C)=C3C#N)cc12` [BAY-3827], the % residual kinase activity in experiment [1] is 93%; in experiment [2] it was 103%; in experiment [3], 7%; in [4] it was 84%; in experiment [5], 102%; in [6] it was 133%. The % residual kinase activity is 115% in [7] and 91% in experiment [8]. For the same compound, in the experiment on NCI-H292, the “Cell Proliferation IC50” value was found to be 17.1 µM.
